Test results from article PMC3626541, “A first in human, safety, pharmacokinetics, and clinical activity phase I study of once weekly administration of the Hsp90 inhibitor ganetespib (STA-9090) in patients with solid malignancies” (BMC Cancer, 2013).
Entries after “also recorded” stand apart in the source; their conditions may differ.

System: patients with advanced solid tumors
Assay: Dose escalation: dose-limiting toxicity, MTD and RP2D
Assay type: in vivo, human
Description: Ganetespib was administered over a 1-hour infusion, once weekly for 3 weeks of a 4-week cycle. Intra-patient dose escalation was allowed to dose levels shown to be safe and tolerable. The starting dose (7 mg/m^2) was selected based on a conservative estimate using the highest non-severely toxic dose established in a once-weekly, 4-week repeat dose study in cynomolgus monkeys. […] Each cohort consisted of 3 patients, with expansion to 6 patients if 1 of the 3 initial patients experienced a DLT, which was defined as: Grade 4 thrombocytopenia (or Grade 3 with hemorrhage); Grade 4 neutropenia lasting > 7 days (or Grade 3 with fever); Grade 4 anemia; ≥ Grade 3 non-hematologic toxicity (except alopecia); and ≥ Grade 3 hypersensitivity despite premedication. Doses were escalated after all patients in the preceding dose cohort had completed Cycle 1. […] The RP2D was defined as the dose of ganetespib below which 2 of 3 or 2 of 6 patients experienced a DLT.

## CC(C)c1cc(-c2n[nH]c(=O)n2-c2ccc3c(ccn3C)c2)c(O)cc1O [Ganetespib, 5-[2,4-dihydroxy-5-(1 methyl-ethyl)phenyl]-2,4 dihydro-4-(1-methyl-1H indol-5 yl)-3H-1,2,4 triazole-3-one]
150 mg/m^2 dose level
  DLT: Grade 3 elevated serum amylase: one Grade 3 amylase elevation; also recorded: one patient
259 mg/m^2 dose level
  DLT: Grade 3 and 4 asthenia: one Grade 3 and one Grade 4 asthenia; also recorded: two patients
259 mg/m^2 dose level, expanded to 6 patients
  DLT: Grade 3 diarrhea: one Grade 3 diarrhea; also recorded: one additional patient
7–114 mg/m^2 cohort
  Patients experiencing DLT: None of the patients
1 hour IV infusion once weekly for 3 weeks of a 4-week cycle
  Maximum tolerated dose (MTD): 216 mg/m^2
human, in vivo, iv, 4 weeks
  Recommended phase II dose (RP2D): 200 mg/m^2
In vivo
  Grade 3 fatigue (would have been dose-limiting in dose-escalation phase): One patient
